Source: patent publication US12234233B2, “Crystal form of phosphodiesterase inhibitor, preparation method therefor and use thereof” (TRANSTHERA SCIENCES (NANJING), INC., priority 2019, dated 2025)

Key:
[1] = Pharmacokinetic evaluation in rats; format: in vivo, male SD rats
Procedure: Test substances: the compound of formula (I) was prepared by example 1 of the present invention, and the crystal form I was prepared by example 2 of the present invention.
Administration to Animals and Sample Collection:
(§1) the compound of formula (I) for the experiment was dissolved with 2% DMSO+10% PEG400+88% (28% HP-3-CD) physiological saline to prepare a solution; the solution of the test substance was administered to SD rats by gavage at a dose of 5.0 mg/kg; and the blood sampling time points were 15 min, 30 min, 1 h, 2 h, 4 h, 6 h, 8 h and 24 h after administration.
as §1, with “The compound” for “the compound”, “by intravenous bolus” for “by gavage”, “of 1” for “of 5.0”, “were 5 min,” for “were”
The crystal form I for the experiment was dissolved with 5% DMSO+10% PEG400+85% (20% captisol) physiological saline solution to prepare a solution; the solution of the test substance was administered to SD rats by gavage at a dose of 60.0 mg/kg; and the blood sampling time points were 15 min, 30 min, 1 h, 2 h, 4 h, 8 h, 24 h, 30 h and 48 h after administration.
The crystal form I for the experiment was dissolved with 2% DMSO+10% PEG400+88% (28% HP-β-CD) physiological saline to prepare a solution; the solution of the test substance was administered to SD rats by intravenous bolus at a dose of 5 mg/kg; and the blood sampling time points were 5 min, 15 min, 30 min, 1 h, 4 h, 8 h, 12 h and 24 h after administration.
Compound of formula (I): the ordinary SD rats were used and fixed; the tails of the rats were heated in a water bath 10 minutes before each time point; and about 100 μL of blood was collected via a tail vein, and then placed in an anticoagulation tube containing EDTA-K2. The blood sample was centrifuged at 8000 rpm at 4° C. for 6 min to obtain a plasma sample, which was prepared within 30 minutes after blood collection. The plasma was stored in a refrigerator at −80° C. before the test.
Crystal form I: the rats were subjected to jugular vein cannulation (JVC); each time, about 0.35 ml of blood was collected from the rats via a jugular vein cannula into a centrifuge tube containing 5 μl of 15% EDTA-K2; the mixture was gently mixed to obtain a homogeneous mixture, and then the centrifuge tube was placed in an ice bath immediately. Within 1 hour after collecting whole blood, the mixture was centrifuged at 4° C. and 2400×g for 5 minutes, and the supernatant was immediately collected to obtain a plasma sample. The plasma was stored in a refrigerator at −80° C. before the test.
the plasma sample to be tested was taken out from the −80° C. refrigerator, subjected to natural melting at room temperature, and then vortexed for 5 min; […] of the plasma sample was precisely pipetted into a 1.5 mL centrifuge tube; […] of the internal standard working solution (tolbutamide in methanol) at a concentration of 100 ng/mL was added, and the mixture was mixed homogeneously; the homogeneous mixture was vortexed for 5 min, and then centrifuged at 12000 rpm for 5 min; 50 μL of the supernatant was precisely pipetted into a 96-well plate pre-filled with 150 μL of water/well; and the plate was vortexed for 5 min for homogenization, and subjected to LC-MS/MS assay, with a sample loading volume of 5 μL. […]

[2] = Solubility in test solutions at different pHs and water; format: physicochemical; conditions: 37° C.
Procedure: (§2) Test substances: the compound of formula (I) was prepared by example 1 of the present invention, the crystal form I was prepared by example 2 of the present invention, the crystal form II was prepared by example 16 of the present invention, the crystal form III was prepared by example 20 of the present invention, the crystal form IV was prepared by example 24 of the present invention, the crystal form V was prepared by example 25 of the present invention, the crystal form VI was prepared by example 27 of the present invention, and the crystal form VII was prepared by example 31 of the present invention.
Preparation of Buffered Salt Solutions at Different pHs:
hydrochloric acid solution at pH 1.0:9 ml of hydrochloric acid was pipetted, and water was added for dilution to 1000 ml; the mixture was mixed homogeneously to obtain a hydrochloric acid solution at pH 1.03. Phosphate buffered solution at pH 4.5:1.56 g of sodium dihydrogen phosphate dihydrate was weighed, and 200 ml of water was added to obtain a phosphate buffered solution at pH 4.50. Phosphate buffered solution at pH 6.8:1.56 g of sodium dihydrogen phosphate dihydrate was weighed, and 200 ml of water was added; and the mixture was adjusted to pH 6.80 with 1 mol/L sodium hydroxide solution.
preparation of buffered solutions at different pHs (samples for determining solubility):
50 mg of each test substance was weighed, and 5 ml of the hydrochloric acid solution (pH 1.0) was added; and the mixture was mixed homogeneously with shaking. About 2.5 mg of each test substance was weighed, and 5 ml of the phosphate buffered solution (pH 4.5), 5 ml of the phosphate buffered solution (pH 6.8), and 5 ml of ultrapure water were added, respectively; the mixture was mixed homogeneously with shaking, and then placed in a 37° C. water bath shaker for shaking; the samples were collected at 24 hours and subjected to centrifugation; and the supernatant was taken and directly injected (if the solubility was high, the supernatant was diluted with a 0.1 mol/L hydrochloric acid solution to an appropriate multiple and then injected).
The solubility of the samples was quantitatively calculated according to the single-point external standard method.

[3] = Stability test of different crystal forms; format: physicochemical
Procedure: as §2, with “substances:” for “substances: the compound of formula (I) was prepared by example 1 of the present invention,”
Method: the appropriate amount of different test substances were taken, and placed at 105° C. for 3 days, and at 60° C. and RH 92.5% under light for 5 days and 10 days, respectively; and the samples were collected on day 0, day 3, day 5 and day 10 to investigate the changes in the trait and content of the samples.
Table 5 and Table 6 show the results of the trait and content after placement at 105° C. for 3 days. Table 7 and Table 8 show the results of the trait and content after placement at 60° C. and RH 92.5% under light for 5 days. Table 9 and Table 10 show the results of the trait and content after placement at RH 92.5% under light for 10 days.

[4] = male SD rats, intravenous bolus 1 mg/kg
[5] = pH 1.0 hydrochloric acid solution
[6] = pH 4.5 phosphate buffered solution
[7] = pH 6.8 phosphate buffered solution

SMILES: CCc1cc2c(N3CCC(C)(OC)CC3)c(C#N)c(=O)[nH]c2cn1 [Compound of formula (I), 6-ethyl-4-(4-methoxy-4-methylpiperidin-1-yl)-2-oxo-1,2-dihydro-1,7-diazanaphthal ene-3-carbonitrile]
- Tmax ([1]; Sprague-Dawley, rat, plasma, po, male SD rats, gavage 5.0 mg/kg): 30 min
- pharmacokinetic characteristics ([1]; conclusion from Table 2, rats): excellent pharmacokinetic characteristics
- AUClast PO/Dose ([1]; male SD rats, gavage 5.0 mg/kg): 387.2 h*ng/mL per mg/kg
- tz1/2 PO ([1]; male SD rats, gavage 5.0 mg/kg): 2.68 h
- AUClast iv/Dose [1, 4]: 748 h*ng/mL per mg/kg
- Cl_obs iv [1, 4]: 24.2 mL/min/kg
- Vz_obs iv [1, 4]: 2.13 L/kg
- tz1/2 iv [1, 4]: 1.25 h
- 24-hour solubility ([2]; Water): 170 µg/mL
- 24-hour solubility [2, 5]: 5270 µg/mL
- 24-hour solubility [2, 6]: 160 µg/mL
- 24-hour solubility [2, 7]: 160 µg/mL

SMILES: CCc1cc2c(N3CCC(C)(OC)CC3)c(C#N)c(=O)[nH]c2cn1 [Crystal form II, 6-ethyl-4-(4-methoxy-4-methylpiperidin-1-yl)-2-oxo-1,2-dihydro-1,7-diazanaphthal ene-3-carbonitrile]
- Content ([3]; 0 day): 99.8%
- Trait ([3]; 0 day): Yellow powder
- Content ([3]; Placed at 105° C. for 3 days): 99.5%
- Trait ([3]; Placed at 105° C. for 3 days): Yellow powder
- Content ([3]; Placed at RH 92.5% for 10 days): 99.8%
- Trait ([3]; Placed at RH 92.5% for 10 days): Yellow powder
- Content ([3]; Placed under light for 10 days): 99.4%
- Trait ([3]; Placed under light for 10 days): Yellow powder
- 24-hour solubility ([2]; Water): 160 µg/mL
- 24-hour solubility [2, 5]: 4540 µg/mL
- 24-hour solubility [2, 6]: 160 µg/mL
- 24-hour solubility [2, 7]: 140 µg/mL

SMILES: CCc1cc2c(N3CCC(C)(OC)CC3)c(C#N)c(=O)[nH]c2cn1 [Crystal form III, 6-ethyl-4-(4-methoxy-4-methylpiperidin-1-yl)-2-oxo-1,2-dihydro-1,7-diazanaphthal ene-3-carbonitrile]
- Content ([3]; 0 day): 99.9%
- Trait ([3]; 0 day): Yellow powder
- Content ([3]; Placed at 60° C. for 5 days): 99.9%
- Content ([3]; Placed at 105° C. for 3 days): 99.7%
- Trait ([3]; Placed at 105° C. for 3 days): Yellow powder
- Content ([3]; Placed at RH 92.5% for 5 days): 99.9%
- Content ([3]; Placed under light for 5 days): 99.8%
- 24-hour solubility ([2]; Water): 230 µg/mL
- 24-hour solubility [2, 6]: 150 µg/mL
- 24-hour solubility [2, 7]: 120 µg/mL

SMILES: CCc1cc2c(N3CCC(C)(OC)CC3)c(C#N)c(=O)[nH]c2cn1 [Crystal form IV, 6-ethyl-4-(4-methoxy-4-methylpiperidin-1-yl)-2-oxo-1,2-dihydro-1,7-diazanaphthal ene-3-carbonitrile]
- Content ([3]; 0 day): 90.9%
- Trait ([3]; 0 day): Yellow powder
- Content ([3]; Placed at RH 92.5% for 10 days): 90.8%
- Trait ([3]; Placed at RH 92.5% for 10 days): Yellow powder
- Content ([3]; Placed under light for 10 days): 90.9%
- Trait ([3]; Placed under light for 10 days): Yellow powder
- 24-hour solubility ([2]; Water): 140 µg/mL
- 24-hour solubility [2, 5]: 1640 µg/mL
- 24-hour solubility [2, 6]: 130 µg/mL
- 24-hour solubility [2, 7]: 130 µg/mL

SMILES: CCc1cc2c(N3CCC(C)(OC)CC3)c(C#N)c(=O)[nH]c2cn1 [Crystal form V, 6-ethyl-4-(4-methoxy-4-methylpiperidin-1-yl)-2-oxo-1,2-dihydro-1,7-diazanaphthal ene-3-carbonitrile]
- Content ([3]; 0 day): 97.3%
- Trait ([3]; 0 day): Yellow powder
- Content ([3]; Placed at RH 92.5% for 10 days): 97.4%
- Trait ([3]; Placed at RH 92.5% for 10 days): Yellow powder
- Content ([3]; Placed under light for 10 days): 98.1%
- Trait ([3]; Placed under light for 10 days): Yellow powder
- 24-hour solubility ([2]; Water): 330 µg/mL
- 24-hour solubility [2, 5]: 4670 µg/mL
- 24-hour solubility [2, 6]: 350 µg/mL
- 24-hour solubility [2, 7]: 360 µg/mL

SMILES: CCc1cc2c(N3CCC(C)(OC)CC3)c(C#N)c(=O)[nH]c2cn1 [Crystal form VI, 6-ethyl-4-(4-methoxy-4-methylpiperidin-1-yl)-2-oxo-1,2-dihydro-1,7-diazanaphthal ene-3-carbonitrile]
- Content ([3]; 0 day): 99.9%
- Trait ([3]; 0 day): Yellow powder
- Content ([3]; Placed at 60° C. for 5 days): 99.8%
- Content ([3]; Placed at 105° C. for 3 days): 99.7%
- Trait ([3]; Placed at 105° C. for 3 days): Yellow powder
- Content ([3]; Placed at RH 92.5% for 5 days): 99.9%
- Content ([3]; Placed under light for 5 days): 99.6%
- 24-hour solubility ([2]; Water): 260 µg/mL
- 24-hour solubility [2, 6]: 170 µg/mL
- 24-hour solubility [2, 7]: 140 µg/mL

SMILES: CCc1cc2c(N3CCC(C)(OC)CC3)c(C#N)c(=O)[nH]c2cn1 [Crystal form VII, 6-ethyl-4-(4-methoxy-4-methylpiperidin-1-yl)-2-oxo-1,2-dihydro-1,7-diazanaphthal ene-3-carbonitrile]
- Content ([3]; 0 day): 100.0%
- Content ([3]; Placed at 60° C. for 5 days): 99.9%
- Content ([3]; Placed at RH 92.5% for 5 days): 100.0%
- Content ([3]; Placed under light for 5 days): 99.6%
- 24-hour solubility ([2]; Water): 150 µg/mL
- 24-hour solubility [2, 5]: 7550 µg/mL
- 24-hour solubility [2, 6]: 140 µg/mL
- 24-hour solubility [2, 7]: 130 µg/mL
